Measured values reported in patent US20140120060A1, “TREATMENT OF RHEUMATOID ARTHRITIS AND ASTHMA USING PI3 KINASE INHIBITORS” (INFINITY PHARMACEUTICALS, INC., priority 2012, published 2014).

System: B cell
Assay: B cell proliferation
Format: cell-based

For `CC(=O)Nc1nc2ccc(-c3nn(Cc4cc5cccc(C)c5c(=O)n4C4CC4)c4ncnc(N)c34)cc2s1` [Compound 155], the EC50 was < 100 nM.

With `CC(=O)Nc1nc2ccc(-c3nn(Cc4cc5cccc(Cl)c5c(=O)n4C4CC4)c4ncnc(N)c34)cc2s1` [Compound 156] the EC50 was < 100 nM.

With `CC(=O)Nc1nc2ccc(-c3nn(Cc4cc5cccc(Cl)c5c(=O)n4C(C)C)c4ncnc(N)c34)cc2s1` [Compound 157] the EC50 was < 100 nM.

In the case of `CC(=O)Nc1nc2ccc(-c3nn(Cc4cc5cccc(F)c5c(=O)n4C(C)C)c4ncnc(N)c34)cc2s1` [Compound 158], the EC50 is reported as < 100 nM.

In the case of `CC(=O)Nc1nc2ccc(-c3nn(Cc4cc5cccc(C)c5c(=O)n4C4CCC4)c4ncnc(N)c34)cc2s1` [Compound 159], the EC50 is reported as < 100 nM.

For `Cc1ccccc1-n1c(Cn2nc(-c3cn[nH]c3)c3c(N)ncnc32)cc2cccc(C)c2c1=O` [Compound 160], the EC50 was < 100 nM.

`Cc1cccc2cc(Cn3nc(-c4cn[nH]c4)c4c(N)ncnc43)n(-c3ccccc3F)c(=O)c12` [Compound 161] was tested, and the EC50 was < 1000 nM.

In the case of `Cc1ccccc1-n1c(Cn2nc(-c3cnn(CCO)c3)c3c(N)ncnc32)cc2cccc(C)c2c1=O` [Compound 163], the EC50 is reported as < 1000 nM.

With `Cc1cccc2cc(Cn3nc(-c4cn[nH]c4)c4c(N)ncnc43)n(-c3cccc(F)c3)c(=O)c12` [Compound 166] the EC50 was < 100 nM.

With `Cc1cccc2cc(C(C)Nc3ncnc4[nH]cnc34)n(-c3ccccc3F)c(=O)c12` (stereo not drawn) [Compound 167] the EC50 was < 100 nM.

In the case of `CC(=O)Nc1nc2ccc(-c3nn(Cc4cc5ccccc5c(=O)n4-c4ccccc4C)c4ncnc(N)c34)cc2s1` [Compound 168], the EC50 is reported as < 100 nM.

`Cc1cccc2cc(Cn3nc(C#N)c4c(N)ncnc43)n(-c3ccccc3F)c(=O)c12` [Compound 169] was tested, and the EC50 was < 1000 nM.

`Cc1ccccc1-n1c(Cn2nc(C#N)c3c(N)ncnc32)cc2cccc(C)c2c1=O` [Compound 170] was tested, and the EC50 was < 100 nM.

In the case of `Cc1cccc2cc(Cn3nc(/C=C4/SC(=O)NC4=O)c4c(N)ncnc43)n(-c3ccccc3F)c(=O)c12` [Compound 171], the EC50 is reported as < 100 nM.

In the case of `Cc1ccccc1-n1c(Cn2nc(/C=C3/SC(=O)NC3=O)c3c(N)ncnc32)cc2cccc(C)c2c1=O` [Compound 173], the EC50 is reported as < 100 nM.

In the case of `Cc1ccccc1-n1c(Cn2nc(/C=C/C(N)=O)c3c(N)ncnc32)cc2cccc(C)c2c1=O` [Compound 174], the EC50 is reported as < 100 nM.

With `CCn1c(Cn2nc(-c3ccc4nc(NC(C)=O)sc4c3)c3c(N)ncnc32)cc2cccc(C)c2c1=O` [Compound 176] the EC50 was < 100 nM.

In the case of `CC(=O)Nc1nc2ccc(-c3nn(Cc4cc5cccc(C)c5c(=O)n4-c4ccccc4)c4ncnc(N)c34)cc2s1` [Compound 177], the EC50 is reported as < 100 nM.

`CC(=O)Nc1nc2ccc(-c3nn(Cc4cc5cccc(C)c5c(=O)n4-c4cccc(F)c4)c4ncnc(N)c34)cc2s1` [Compound 178] was tested, and the EC50 was < 100 nM.

For `C=Cc1nn(Cc2cc3cccc(C)c3c(=O)n2-c2ccccc2C)c2ncnc(N)c12` [Compound 180], the EC50 was < 100 nM.

`Cc1cccc2cc(Cn3nc(-c4cn[nH]c4)c4c(N)ncnc43)n(-c3ccccc3C(C)C)c(=O)c12` [Compound 185] was tested, and the EC50 was < 100 nM.

In the case of `Cc1ccccc1-n1c(Cn2nc(-c3cn[nH]c3)c3c(N)ncnc32)cc2ccccc2c1=O` [Compound 187], the EC50 is reported as < 100 nM.

With `Cc1cccc2cc(Cn3nc(-c4cn[nH]c4)c4c(N)ncnc43)n(-c3ccccc3Cl)c(=O)c12` [Compound 188] the EC50 was < 100 nM.

`CCc1ccccc1-n1c(Cn2nc(-c3cn[nH]c3)c3c(N)ncnc32)cc2cccc(C)c2c1=O` [Compound 190] was tested, and the EC50 was < 100 nM.

`Cc1ccccc1-n1c(C(C)Nc2ncnc3[nH]cnc23)cc2cccc(C)c2c1=O` (stereo not drawn) [Compound 191] was tested, and the EC50 was < 100 nM.

`Cc1cccc2cc([C@@H](C)Nc3ncnc4[nH]cnc34)n(-c3ccccc3)c(=O)c12` [Compound 195] was tested, and the EC50 was < 1000 nM.

In the case of `Cc1cccc2cc([C@H](C)Nc3ncnc4[nH]cnc34)n(-c3ccccc3)c(=O)c12` [Compound 196], the EC50 is reported as < 100 nM.

`Cc1cccc2cc([C@@H](C)Nc3ncnc4[nH]cnc34)n(C3CCC3)c(=O)c12` [Compound 197] was tested, and the EC50 was < 10000 nM.

For `Cc1cccc2cc([C@H](C)Nc3ncnc4[nH]cnc34)n(C3CCC3)c(=O)c12` [Compound 198], the EC50 was < 100 nM.

For `Cc1cccc2cc([C@@H](C)Nc3ncnc4[nH]cnc34)n(C3CC3)c(=O)c12` [Compound 199], the EC50 was > 10000 nM.

In the case of `Cc1cccc2cc([C@H](C)Nc3ncnc4[nH]cnc34)n(C3CC3)c(=O)c12` [Compound 200], the EC50 is reported as < 100 nM.

In the case of `Cc1cccc2cc(Cn3nc(-c4ccc5oc(N)nc5c4)c4c(N)ncnc43)n(C3CC3)c(=O)c12` [Compound 201], the EC50 is reported as < 100 nM.

For `CCC(Nc1ncnc2[nH]cnc12)c1cc2cccc(C)c2c(=O)n1-c1ccccc1C` (stereo not drawn) [Compound 202], the EC50 was < 100 nM.

For `Cc1cccc2cc(C(C)Nc3ncnc4[nH]cnc34)n(C3CC3)c(=O)c12` (stereo not drawn) [Compound 204], the EC50 was < 100 nM.

In the case of `Cc1cccc2cc(Cn3nc(-c4ccc5oc(N)nc5c4)c4c(N)ncnc43)n(-c3ccccc3)c(=O)c12` [Compound 205], the EC50 is reported as < 100 nM.

With `Cc1cccc2cc(Cn3nc(-c4cn[nH]c4)c4c(N)ncnc43)n(-c3ccccc3)c(=O)c12` [Compound 206] the EC50 was < 100 nM.

In the case of `Cc1ccccc1-n1c(Cn2nc(-c3nn[nH]n3)c3c(N)ncnc32)cc2cccc(C)c2c1=O` [Compound 207], the EC50 is reported as < 10000 nM.

For `Cc1cccc2cc(Cn3nc(-c4ccc5oc(N)nc5c4)c4c(N)ncnc43)n(C3CCC3)c(=O)c12` [Compound 208], the EC50 was < 100 nM.

In the case of `Cc1cccc2cc(C(C)Nc3ncnc4[nH]cnc34)n(C(C)C)c(=O)c12` (stereo not drawn) [Compound 209], the EC50 is reported as < 100 nM.

`Cc1cccc2cc(C(C)Nc3ncnc4[nH]cnc34)n(-c3ccccc3)c(=O)c12` (stereo not drawn) [Compound 210] was tested, and the EC50 was < 100 nM.

`CCC(Nc1ncnc2[nH]cnc12)c1cc2cccc(C)c2c(=O)n1-c1ccccc1` (stereo not drawn) [Compound 211] was tested, and the EC50 was < 100 nM.

`CCC(Nc1ncnc2[nH]cnc12)c1cc2cccc(C)c2c(=O)n1C1CCC1` (stereo not drawn) [Compound 212] was tested, and the EC50 was < 1000 nM.

With `Cc1cccc2cc(C(C)Nc3ncnc4[nH]cnc34)n(-c3ccc(F)cc3)c(=O)c12` (stereo not drawn) [Compound 213] the EC50 was < 100 nM.

With `Cc1cccc2cc(Cn3nc(-c4cn[nH]c4)c4c(N)ncnc43)n(-c3ccccc3C(F)(F)F)c(=O)c12` [Compound 214] the EC50 was < 100 nM.

`Cc1cccc2cc(C(C)Nc3ncnc4[nH]cnc34)n(C3CCC3)c(=O)c12` (stereo not drawn) [Compound 215] was tested, and the EC50 was < 100 nM.

In the case of `Cc1cccc2cc(C(C)Nc3ncnc4[nH]cnc34)n(-c3c(F)cccc3F)c(=O)c12` (stereo not drawn) [Compound 216], the EC50 is reported as < 100 nM.

For `CCC(Nc1ncnc2[nH]cnc12)c1cc2cccc(C)c2c(=O)n1C(C)C` (stereo not drawn) [Compound 219], the EC50 was < 100 nM.

With `CC(Nc1ncnc2[nH]cnc12)c1cc2ccccc2c(=O)n1-c1ccccc1` (stereo not drawn) [Compound 220] the EC50 was < 100 nM.

For `CCC(Nc1ncnc2[nH]cnc12)c1cc2ccccc2c(=O)n1-c1ccccc1` (stereo not drawn) [Compound 221], the EC50 was < 100 nM.

For `Cc1cccc2cc(C(C)Nc3ncnc4[nH]cnc34)n(-c3cc(F)cc(F)c3)c(=O)c12` (stereo not drawn) [Compound 222], the EC50 was < 100 nM.

`CCC(Nc1ncnc2[nH]cnc12)c1cc2cccc(C)c2c(=O)n1-c1ccc(F)cc1` (stereo not drawn) [Compound 223] was tested, and the EC50 was < 100 nM.

`CCC(Nc1ncnc2[nH]cnc12)c1cc2cccc(C)c2c(=O)n1-c1cc(F)cc(F)c1` (stereo not drawn) [Compound 224] was tested, and the EC50 was < 100 nM.

In the case of `Cc1cccc2cc(C(C)Nc3ncnc4[nH]cnc34)n(C3CCN(C)CC3)c(=O)c12` (stereo not drawn) [Compound 227], the EC50 is reported as < 100 nM.

`CCC(Nc1ncnc2[nH]cnc12)c1cc2cccc(C)c2c(=O)n1C1CCN(C)CC1` (stereo not drawn) [Compound 228] was tested, and the EC50 was < 100 nM.

`Cc1cccc2cc(C(C)Nc3ncnc4[nH]cnc34)n(-c3cccc(F)c3)c(=O)c12` (stereo not drawn) [Compound 229] was tested, and the EC50 was < 100 nM.

For `Cc1cccc2cc([C@H](C)Nc3ncnc4[nH]cnc34)n(C(C)C)c(=O)c12` [Compound 230], the EC50 was < 100 nM.

`Cc1cccc2cc(C(C)Nc3ncnc4[nH]cnc34)n(C3CCCC3)c(=O)c12` (stereo not drawn) [Compound 231] was tested, and the EC50 was < 100 nM.

For `Cc1cccc2cc(C(C)Nc3ncnc4[nH]cnc34)n(CCN3CCOCC3)c(=O)c12` (stereo not drawn) [Compound 232], the EC50 was < 100 nM.

`Cc1cccc2cc(C(C)Nc3ncnc4[nH]cnc34)n(CCN3CCCC3)c(=O)c12` (stereo not drawn) [Compound 233] was tested, and the EC50 was < 100 nM.

`Cc1cccc2cc(C(C)Nc3ncnc4[nH]cnc34)n(C3CCOCC3)c(=O)c12` (stereo not drawn) [Compound 234] was tested, and the EC50 was < 100 nM.

`Cc1cccc2cc(Cn3nc(-c4ccc5nc(N)oc5c4)c4c(N)ncnc43)n(-c3ccccc3)c(=O)c12` [Compound 235] was tested, and the EC50 was < 10000 nM.

For `CC(Nc1ncnc2[nH]cnc12)c1cc2cccc(Cl)c2c(=O)n1-c1ccccc1` (stereo not drawn) [Compound 237], the EC50 was < 100 nM.

With `Cc1ccccc1-n1c(Cn2nc(-c3ccc4nc(N)oc4c3)c3c(N)ncnc32)cc2cccc(C)c2c1=O` [Compound 243] the EC50 was < 1000 nM.

In the case of `Cc1cccc2cc([C@H](C)Nc3nc(Cl)nc4[nH]cnc34)n(-c3ccccc3)c(=O)c12` [Compound 244], the EC50 is reported as < 100 nM.

With `Cc1cccc2cc([C@H](C)Nc3nc(F)nc4[nH]cnc34)n(-c3ccccc3)c(=O)c12` [Compound 245] the EC50 was < 100 nM.

With `Cc1cccc2cc([C@H](C)Nc3ncnc4[nH]ccc34)n(-c3ccccc3)c(=O)c12` [Compound 247] the EC50 was < 100 nM.

In the case of `Cc1cccc2cc([C@H](C)Nc3nc(Cl)ncc3Cl)n(-c3ccccc3)c(=O)c12` [Compound 248], the EC50 is reported as < 100 nM.

For `Cc1cccc2cc([C@H](C)Nc3nc(N)ncc3Cl)n(-c3ccccc3)c(=O)c12` [Compound 249], the EC50 was < 100 nM.

For `CC(=O)Nc1nc2cc(-c3nn(Cc4cc5cccc(C)c5c(=O)n4-c4ccccc4C)c4ncnc(N)c34)ccc2o1` [Compound 251], the EC50 was < 100 nM.

In the case of `Cc1cccc2cc(Cn3nc(-c4ccc5nc(N)sc5c4)c4c(N)ncnc43)n(-c3ccccc3)c(=O)c12` [Compound 252], the EC50 is reported as < 100 nM.

With `CC(=O)Nc1nc2cc(-c3nn(Cc4cc5cccc(C)c5c(=O)n4-c4ccccc4)c4ncnc(N)c34)ccc2o1` [Compound 253] the EC50 was < 100 nM.

With `Cc1cccc2cc([C@H](C)Nc3ncnc4[nH]cc(F)c34)n(-c3ccccc3)c(=O)c12` [Compound 254] the EC50 was < 100 nM.

With `Cc1cccc2cc([C@H](C)Nc3ncnc4[nH]nc(C#N)c34)n(-c3ccccc3)c(=O)c12` [Compound 255] the EC50 was < 100 nM.

For `Cc1cccc2cc([C@H](C)Nc3ncnc4[nH]nc(C(N)=O)c34)n(-c3ccccc3)c(=O)c12` [Compound 256], the EC50 was < 100 nM.

With `Cc1cccc2cc([C@H](C)Nc3ncnc4[nH]cc(Br)c34)n(-c3ccccc3)c(=O)c12` [Compound 257] the EC50 was < 100 nM.
